Each structure is given as a SMILES string.

The source of these data is patent US9603892B2, “Peptide compound for inhibiting restenosis and promoting re-endothelialization and method for preparing the same” (Chonnam National University Hospital, priority 2014, dated 2017).

The assay has as its system vascular smooth muscle cell (SMC). Nature of the assay: Effect on proliferation of vascular smooth muscle cell (SMC), XTT assay. It is filed as cell-based. The note with it: 1 uM; XTT at 1, 4 and 7 days; versus untreated control, which grew until 7 days; FIG. 1. Here is the method:
As cells used in a cell culture, the vascular smooth muscle cell (SMC) which is a smooth muscle cell, and the human umbilical vein endothelial cell (HUVEC) which is the cell for promoting vascular re-endothelialization were purchased from Korea Cell Line Bank, respectively. The cell culture was performed by culturing the vascular smooth muscle cell (SMC) and the human umbilical vein endothelial cell (HUVEC) in Dulbecoco's modified eagle medium (DMEM) with 10% fetal bovine serum (FBS) under conditions of 37° C. and 5% CO2. […]
5×10^4 of SMC cells cultured according to Example 2 were cultured in the 24-well cell culture plate and then treated with 1 uM of the peptide compound prepared by Example 2 (hereinafter, referred to as ‘EVR-P’). […] After the reaction, 200 ul of the culture medium was transferred from each well to a 96 well cell culture dish, and degree of color change was measured from absorbance at a 450 nm wavelength by a spectroscopy.
5×10^4 of SMC cells cultured according to Example 2 were cultured in the 24-well cell culture plate and then treated with 1 uM of the known Everolimus (EVR)(LC Laboratories). […] After the reaction, 200 ul of the culture medium was transferred from each well to the 96 well cell culture dish, and degree of color change was measured from absorbance at a 450 nm wavelength by a spectroscopy.

`CO[C@H]1C[C@@H]2CC[C@@H](C)[C@@](O)(O2)C(=O)C(=O)N2CCCC[C@H]2C(=O)O[C@H]([C@H](C)C[C@@H]2CC[C@@H](OCCO)[C@H](OC)C2)CC(=O)[C@H](C)/C=C(\C)[C@@H](O)[C@@H](OC)C(=O)[C@H](C)C[C@H](C)/C=C/C=C/C=C/1C` [EVR, Everolimus]: the “SMC cell proliferation (XTT, absorbance at 450 nm)” value is “cell proliferation was inhibited”.
